Assay results published in patent US7973047B2, “Beta-Secretase modulators and methods of use” (Amgen Inc., priority 2010, dated 2011).
Read-outs that look alike come from different tables or passages of the source.

Tested on: Aβ40 in conditioned medium of cells stably expressing Amyloid Precursor Protein (APP)
Test: BACE cell-based assay: Aβ40 in conditioned medium by sandwich ELISA
Conditions: read-out: Cell Assay
Procedure, shortened: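 APP-stable cells grown 24 h in DMEM/10% FBS, then exposed to compounds for 24 h in a 10-point dose series starting at 100 or 10 μM, 0.1% DMSO final. Medium Aβ40 measured by pAb40/biotinylated 6E10 sandwich ELISA with Europium time-resolved fluorescence; IC50 from percent inhibition.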

[1] = cell based assay data, Table 4, unit inferred
[2] = cell based assay data of Table 4, unit inferred

SMILES | IC50 [1] [nM] | IC50 [2] [nM] | other results
CC(=O)N[C@@H](Cc1cccc(F)c1)[C@H](O)CN[C@H]1CC2(CCC2)Oc2ncc(CC(C)(C)C#N)cc21 [compound 651] | – | 4.24 | –
CC(=O)N[C@@H](Cc1ccc(F)cc1)[C@H](O)CN[C@H]1CC2(CCC2)Oc2ncc(CC3CCC3)cc21 [compound 682] | – | 66.5 | –
CC(=O)N[C@@H](Cc1cc(F)cc(F)c1)[C@H](O)CN[C@H]1CC2(CCC2)Oc2ccc(-n3cccn3)cc21 [compound 777] | 41.2 | – | –
CC(=O)N[C@@H](Cc1cccc(F)c1)[C@H](O)CN[C@H]1CC2(CCC2)Oc2cnc(CC(C)(C)F)cc21 [compound 827] | 25.8 | – | –
COC(=O)c1ccc2c(c1)[C@@H](NC[C@@H](O)[C@H](Cc1cccc(C#N)c1)NC(C)=O)CC1(CCC1)O2 [compound 729] | 1450 | – | –
C=CC[C@H](NC(C)=O)[C@@H](O)CN[C@H]1CC2(CCC2)Oc2ncc(CC(C)(C)C)cc21 [compound 737, N-((1S)-1-((1S)-2-(((4′S)-6′-(2,2-dimethylpropyl)-3′,4′-dihydrospiro[cyclobutane-1,2′-pyrano[2,3-b]pyridin]-4′-yl)amino)-1-hydroxyethyl)-3-buten-1-yl)acetamide] | ≥ 10000 | – | –
CC(=O)N[C@@H](Cc1ccc(F)cc1)[C@H](O)CN[C@H]1C[C@@]2(CCOC2)Oc2ncc(CC(C)(C)C)cc21 [compound 671] | – | 20.5 | –
CC(=O)N[C@@H](Cc1ccccc1)[C@H](O)CN[C@H]1CC2(CCC2)Oc2ncc(C(O)C(C)C(F)(F)F)cc21 (stereo partly drawn) [compound 865] | 1930 | – | –
CC(=O)N[C@@H](Cc1ccc(F)cc1)[C@H](O)CN[C@H]1C[C@]2(C[C@H](C)C2)Oc2ncc(CC(C)C)cc21 [compound 615, N-((1S,2R)-1-((4-fluorophenyl)methyl)-2-hydroxy-3-(((1s,3R,4′S)-3-methyl-6′-(2-methylpropyl)-3′,4′-dihydrospiro[cyclobutane-1,2′-pyrano[2,3-b]pyridin]-4′-yl)amino)propyl)acetamide] | – | 24.8 | –
CC(=O)N[C@@H](Cc1cc(F)cc(F)c1)[C@H](O)CN[C@H]1CC2(CCC2)Oc2ccc(N3CCC3=O)cc21 [compound 795] | 255 | – | –
CCC(=O)N[C@@H](Cc1ccccc1)[C@H](O)CN[C@H]1CC2(CCC2)Oc2cnc(CC(C)(C)C)cc21 [compound 877] | 64.1 | – | –
CC(=O)N[C@@H](Cc1cc(F)cc(F)c1)[C@H](O)CN[C@H]1CC(C)(C)Oc2cc(F)c(Br)cc21 [compound 802] | 525 | – | –
CC(=O)N[C@@H](Cc1cccc(C#N)c1)[C@H](O)CN[C@H]1CC(C)(C)Cc2ncc(C)cc21 [compound 543] | – | 124 | –
CC(=O)N[C@@H](Cc1ccc(F)cc1)[C@H](O)CN[C@H]1CC2(CCC2)Oc2c1cc(CC(C)(C)C)nc2OC(C)C [compound 608, N-((1S,2R)-3-(((4′S)-6′-(2,2-dimethylpropyl)-8′-((1-methylethyl)oxy)-3′,4′-dihydrospiro[cyclobutane-1,2′-pyrano[2,3-c]pyridin]-4′-yl)amino)-1-((4-fluorophenyl)methyl)-2-hydroxypropyl)acetamide] | – | 64.3 | –
CC(=O)N[C@@H](Cc1ccc(Cl)cc1)[C@H](O)CN[C@H]1CC2(CCC2)Oc2ncc(CC(C)C)cc21 [compound 858] | 52.7 | – | –
CC(=O)N[C@@H](Cc1cccc(F)c1F)[C@H](O)CN[C@H]1CC2(CCC2)Oc2ncc(CC(C)(C)C)cc21 [compound 825] | 4.34 | – | –
CC(C)(C)Cc1cnc2c(c1)[C@@H](NC[C@@H](O)[C@H](Cc1ccc(F)cc1)NC(=O)CF)CC1(CCC1)O2 [compound 629] | – | – | IC50: 12.6 nM
CC(=O)N[C@@H](Cc1ccccc1)[C@H](O)CN[C@H]1CC2(CCC2)Oc2c1cc(CC(C)(C)C)nc2Cl [compound 753] | 13.8 | – | –
CC(=O)N[C@@H](Cc1cc(F)cc(Cl)c1)[C@H](O)CN[C@H]1CC2(CCC2)Oc2c1cc(CC(C)(C)C)nc2Cl [compound 752] | 42.2 | – | –
CC(=O)N[C@@H](Cc1ccccc1)[C@H](O)CN[C@H]1CC2(CCC2)Oc2c1cc(CC(C)(C)C)cc2N1CCOCC1 [compound 537] | – | 1970 | –
CC(=O)N[C@@H](Cc1cccc(F)c1F)[C@H](O)CN[C@H]1CC2(CCC2)Oc2ncc([C@H](F)C(C)(C)C)cc21 [compound 677] | – | 8.61 | –
CC(=O)N[C@@H](Cc1ccc(F)c(F)c1F)[C@H](O)CN[C@H]1CC2(CCC2)Oc2ncc(CC(C)(C)C)cc21 [compound 814] | 56.3 | – | –
CC(=O)N[C@@H](Cc1cccc(F)c1)[C@H](O)CN[C@H]1CC2(CCC2)Nc2ccc(CC(C)(C)C)cc21 [compound 561, N-((1S,2R)-3-(((4′S)-6′-(2,2-dimethylpropyl)-3′,4′-dihydro-1′H-spiro[cyclobutane-1,2′-quinolin]-4′-yl)amino)-1-((3-fluorophenyl)methyl)-2-hydroxypropyl)acetamide] | – | 29.4 | –

More lines, main results first:

IC50 [1] [nM] | IC50 [2] [nM] | SMILES | other results
25.2 | – | CC(=O)N[C@@H](Cc1cccc(F)c1)[C@H](O)CN[C@H]1CC2(CCC2)Oc2nc(F)c(CC(C)C)cc21 [compound 855] | –
– | 3.94 | CC(=O)N[C@@H](Cc1cccc(F)c1)[C@H](O)CN[C@H]1CC2(CCC2)Oc2ncc(CC(C)(C)F)cc21 [compound 525] | –
81.6 | – | CC(=O)N[C@@H](Cc1cc(F)cc(F)c1)[C@H](O)CN[C@H]1CC2(CCC2)Oc2ccc(-n3ccnc3)cc21 [compound 782] | –
100 | – | CC(=O)N[C@@H](Cc1c(F)cc(F)cc1F)[C@H](O)CN[C@H]1CC2(CCC2)Oc2ncc(CC(C)(C)C)cc21 [compound 813] | –
– | 61.5 | CC(=O)N[C@@H](Cc1ccc(Cl)cc1)[C@H](O)CN[C@H]1C[C@]2(CC[C@H]2C)Oc2ncc(CC(C)(C)C)cc21 [compound 624] | –
– | 6.79 | COc1cc(C[C@H](NC(C)=O)[C@H](O)CN[C@H]2CC3(CCC3)Oc3ncc(CC(C)(C)C)cc32)ccn1 [compound 643, N-((1S,2R)-3-(((4′S)-6′-(2,2-dimethylpropyl)-3′,4′-dihydrospiro[cyclobutane-1,2′-pyrano[2,3-b]pyridin]-4′-yl)amino)-2-hydroxy-1-((2-(methyloxy)-4-pyridinyl)methyl)propyl)acetamide] | –
– | 1080 | CC(=O)N[C@@H](Cc1ccc(F)cc1)[C@H](O)CN[C@H]1CC2(CCC2)Oc2ncc([C@@H](F)C(C)(C)C)cc21 [compound 674] | –
166 | – | CC(=O)N[C@@H](Cc1ccccc1)[C@H](O)CN[C@H]1CC2(CCC2)Oc2ccc(NC3CCCC3)cc21 [compound 771] | –
≥ 10000 | – | CC(=O)N[C@H](Cc1cccc(Cl)c1F)[C@H](O)CN[C@H]1CC2(CCC2)Oc2ncc(CC(C)(C)C)cc21 [compound 866] | –
20.6 | – | COC(=O)N[C@@H](Cc1ccccc1)[C@H](O)CN[C@H]1CC2(CCC2)Oc2ncc(CC(C)(C)C)cc21 [compound 873] | –
116 | – | CC(=O)N[C@@H](Cc1cc(F)cc(F)c1)[C@H](O)CN[C@H]1CC2(CCC2)Oc2cc(F)c(N[C@@H]3CCOC3)cc21 [compound 803] | –
8.39 | – | CC(=O)N[C@@H](Cc1cc(F)cc(Cl)c1)[C@H](O)CN[C@H]1CC(C)(C)Oc2cnc(CC(C)(C)C)cc21 [compound 796] | –
167 | – | CC(=O)N[C@@H](Cc1cncc(F)c1)[C@@H](O)CN[C@H]1CC2(CCC2)Oc2ncc(CC(C)(C)C)cc21 [compound 831, N-((1S,2S)-3-(((4′S)-6′-(2,2-dimethylpropyl)-3′,4′-dihydrospiro[cyclobutane-1,2′-pyrano[2,3-b]pyridin]-4′-yl)amino)-1-((5-fluoro-3-pyridinyl)methyl)-2-hydroxypropyl)acetamide] | –
